# Results from patent US20250206732A1, “COMPOUNDS AND METHODS FOR THE TARGETED DEGRADATION OF KRAS” (Arvinas Operations, Inc., priority 2022, published 2025).
# Columns and labels:
# AsPC-1 HiBiT-KRASG12D = target: T1, AsPC-1 HiBiT-KRASG12D (Homo sapiens, UniProt P01116, G12D); test: HiBiT degradation assay (G12D), AsPC-1 HiBiT-KRASG12D cells; format: cell-based; details: 24 hours treatment; for Dmax: ASPC1, AsPC-1 HiBiT-KRASG12D cells, maximum degradation observed; for DC50: AsPC-1 HiBiT-KRASG12D cells, HiBiT luminescence
# T1 construct: insert the HiBiT tag onto the N-terminus of one or more of the endogenous KRAS alleles; endogenous in cells; host or cells: AsPC-1 (ATCC CRL-1682), CRISPR-Cas9 knock-in clone, one tagged allele
# T1 sequence (P01116 1-188 isoform P01116-2 G12D): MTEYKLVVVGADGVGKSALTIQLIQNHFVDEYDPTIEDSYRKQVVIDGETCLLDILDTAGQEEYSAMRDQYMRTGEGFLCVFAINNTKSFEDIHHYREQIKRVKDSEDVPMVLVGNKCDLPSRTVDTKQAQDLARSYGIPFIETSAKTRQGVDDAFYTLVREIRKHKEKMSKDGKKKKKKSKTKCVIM
# Method in brief: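 AsPC-1 cells (homozygous G12D) carrying a CRISPR knock-in N-terminal HiBiT tag on endogenous KRAS were treated with compounds for 24 hours at 37° C, 5% CO2, in triplicate. Alamar blue viability was read first, then cells were washed and lysed with Nano-Glo HiBiT reagent for 45 minutes before luminescence reading.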
# SW1573 HiBiT-KRASG12C = target: T2, SW1573 HiBiT-KRASG12C (Homo sapiens, UniProt P01116, G12C); test: HiBiT degradation assay (G12C), SW1573 HiBiT-KRASG12C cells; format: cell-based; details: 24 hours treatment; for DC50: HiBiT luminescence; for Dmax: maximum degradation observed;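 as to DC50: Letter grades: C is 1000 to 3000 nM and D is above 3000 nM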
# T2 construct: expressed in transfected cells
# T2 sequence (P01116 1-188 isoform P01116-2 G12C): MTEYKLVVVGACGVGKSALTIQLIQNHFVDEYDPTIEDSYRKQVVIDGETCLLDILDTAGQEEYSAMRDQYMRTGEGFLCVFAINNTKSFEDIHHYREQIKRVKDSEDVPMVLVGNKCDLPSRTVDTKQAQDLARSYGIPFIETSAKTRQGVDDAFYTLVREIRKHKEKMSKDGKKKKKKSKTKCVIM
# Procedure: Reagents. SW1573 (CRL-2170), AsPC-1 (CRL-1682), and SW620 (CCL-227) cells were purchased from ATCC. SW1573 cells are homozygous for the G12C mutation in KRAS, AsPC-1 cells are homozygous for the G12D mutation, and SW620 cells are homozygous for the G12V mutation. SW1573 cells were cultured in DMEM+F12+Glutamax (+Sodium Bicarbonate, +sodium pyruvate, ThermoFisher scientific, #10565) supplemented with 10% FBS (ThermoFisher scientific, #2060357) and 1% Antibiotic-Antimycotic (ThermoFisher scientific, #15240096). AsPC-1 cells were cultured in GIBCO RPMI-1640 (ThermoFisher scientific, catalog #61870-036 with Glutamax, No HEPES, No Na Pyruvate) supplemented with 10% FBS (ThermoFisher scientific, catalog #2060357) and 1× Penicillin-Streptomycin (ThermoFisher scientific, catalog #15140122, 10000 U/ml, 100×). SW620 cells were cultured in DMEM Glutamax (ThermoFisher scientific, catalog #10566016) supplemented with 10% FBS (ThermoFisher scientific, catalog #2060357) and 1× Penicillin-Streptomycin (ThermoFisher scientific, catalog #15140122, 10000 U/ml, 100×). For degradation assays, 384 well plates were used. Alamar blue was purchased from ThermoFisher scientific (A50101) and used according to manufacturer instructions. The Nano-Glo® HiBiT Lytic Detection System and Nano-Glo® HiBiT Blotting System were purchased from Promega (#N3050 and #N2410) and used according to manufacturer instructions.
# HiBiT-tagged cell line generation. To create the SW1573 HiBiT-KRASG12C cell line, the nucleotide sequence encoding the 11 amino acid HiBiT tag from Promegal was appended to the N-terminus of the KRASG12C coding sequence. This synthesized DNA was cloned into a modified pcDNA3.1 vector under the control of the thymidine kinase (TK) promoter. This HiBiT-KRASG12C expressing plasmid was transfected into parental SW1573 cells and colonies were selected using 400 μg/mL zeocin. The resulting clonal lines were screened for expression of HiBiT-KRASG12C protein using Nano-Glo® HiBiT Blotting System. A luminescent band of the correct size for HiBiT-KRASG12C was detected in several clones. Clone E6 was selected for further studies.
# HiBiT degradation assays (G12C and G12D). Either SW1573 HiBiT-KRasG12C or AsPC-1 HiBiT-KRasG12D cells were plated at 9000 or 15,000 cells/well in a 384 well plate (Corning #3770). Compounds of the present disclosure and positive controls were diluted in the appropriate cell media and applied to the plated cells resulting in a final concentration titration of 10 μM to 508 pM in 0.5% DMSO. Gambogic acid was used as a positive control for cytotoxicity and titrated from 10 μM to 78 nM. All assays were performed in triplicate. Cells were treated with compounds for 24 hours at 37° C. in an incubator containing 5% CO2. Following treatment, alamar blue was used to determine if any compounds led to a loss in cell viability after 24 hours. The 10× alamar blue reagent was added to a final concentration of 1× as recommended by the manufacturer and cells were returned to the incubator for 4 hours. Plates were then allowed to equilibrate to room temperature and fluorescence was measured using a Perkin-Elmer EnVision. After completion of the fluorescence read, the liquid from each well was removed and the cells were washed with PBS. The Nano-Glo® HiBiT detection reagent was prepared according to the manufacturer's instructions and added to each well after the PBS wash was removed. Following incubation at room temperature for 45 minutes, the luminescence was read using the ultra-sensitive luminescence aperture on the Envision instrument.
# Data analysis. Fluorescence values from the alamar blue treatment were normalized to the DMSO-only control for each compound titration. […]
SMILES,Dmax (AsPC-1 HiBiT-KRASG12D) [%],DC50 (AsPC-1 HiBiT-KRASG12D) [nM],DC50 (SW1573 HiBiT-KRASG12C) [nM],Dmax (SW1573 HiBiT-KRASG12C) [%]
"Cc1ncsc1-c1ccc([C@H](C)NC(=O)[C@@H]2C[C@@H](O)CN2C(=O)[C@@H](NC(=O)COCC2CCN(CCOc3nc(N4CC5CCC(C4)N5)c4cnc(-c5cc(O)cc6ccccc56)c(F)c4n3)CC2)C(C)(C)C)cc1 [Compound 23, (2S,4R)-1-[(2S)-2-[[2-[[1-[2-[4-(3,8-diazabicyclo[3.2.1]octan-3-yl)-8-fluoro-7-(3-hydroxy-1-naphthyl)pyrido[4,3-d]pyrimidin-2-yl]oxyethyl]-4-piperidyl]methoxy]acetyl]amino]-3,3-dimethyl-butanoyl]-4-hydroxy-N-[(1S)-1-[4-(4-methylthiazol-5-yl)phenyl]ethyl]pyrrolidine-2-carboxamide]",20 to 60,1000 to 3000,> 3000,–
"CCc1cccc2cccc(-c3ncc4c(N5CC6CCC(C5)N6)nc(OC[C@]56CCCN5[C@@H](COC(=O)N5CCN(c7cc([C@H](C(=O)N8C[C@H](O)C[C@H]8C(=O)N[C@@H](C)c8ccc(-c9scnc9C)cc8)C(C)C)on7)CC5)CC6)nc4c3F)c12 [Compound 34, [(3R,7aR)-7a-{[(4-{3,8-diazabicyclo[3.2.1]octan-3-yl}-7-(8-ethylnaphthalen-1-yl)-8-fluoropyrido[4,3-d]pyrimidin-2-yl)oxy]methyl}-hexahydro-1H-pyrrolizin-3-yl]methyl 4-{5-[(2R)-1-[(2S,4R)-4-hydroxy-2-{[(1S)-1-[4-(4-methyl-1,3-thiazol-5-yl)phenyl]ethyl]carbamoyl}pyrrolidin-1-yl]-3-methyl-1-oxobutan-2-yl]-1,2-oxazol-3-yl}piperazine-1-carboxylate]",80 to 100,< 600,> 3000,–
"CCc1cccc2cccc(-c3ncc4c(N5CC6CCC(C5)N6)nc(OC[C@@]56CCCN5[C@H](COC(=O)N5CCN(c7cc([C@H](C(=O)N8C[C@H](O)C[C@H]8C(=O)N[C@@H](C)c8ccc(-c9scnc9C)cc8)C(C)C)on7)CC5)CC6)nc4c3F)c12 [Compound 35, [(3S,7aS)-7a-{[(4-{3,8-diazabicyclo[3.2.1]octan-3-yl}-7-(8-ethylnaphthalen-1-yl)-8-fluoropyrido[4,3-d]pyrimidin-2-yl)oxy]methyl}-hexahydro-1H-pyrrolizin-3-yl]methyl 4-{5-[(2R)-1-[(2S,4R)-4-hydroxy-2-{[(1S)-1-[4-(4-methyl-1,3-thiazol-5-yl)phenyl]ethyl]carbamoyl}pyrrolidin-1-yl]-3-methyl-1-oxobutan-2-yl]-1,2-oxazol-3-yl}piperazine-1-carboxylate]",80 to 100,< 600,> 3000,–
"C#Cc1cccc2cc(O)cc(-c3ncc4c(N5CC6CCC(C5)N6)nc(OCCN5CCC6(CC5)CN(c5cc([C@H](C(=O)N7C[C@H](O)C[C@H]7C(=O)N[C@@H](C)c7ccc(-c8scnc8C)cc7)C(C)C)on5)C6)nc4c3F)c12 [Compound 36, (2S,4R)-1-[(2R)-2-[3-(7-{2-[(4-{3,8-diazabicyclo[3.2.1]octan-3-yl}-7-(8-ethynyl-3-hydroxynaphthalen-1-yl)-8-fluoropyrido[4,3-d]pyrimidin-2-yl)oxy]ethyl}-2,7-diazaspiro[3.5]nonan-2-yl)-1,2-oxazol-5-yl]-3-methylbutanoyl]-4-hydroxy-N-[(1S)-1-[4-(4-methyl-1,3-thiazol-5-yl)phenyl]ethyl]pyrrolidine-2-carboxamide]",80 to 100,< 600,> 3000,–
"Cc1ncsc1-c1ccc([C@H](C)NC(=O)[C@@H]2C[C@@H](O)CN2C(=O)[C@@H](c2cc(N3CCN(C(=O)OC[C@H]4CC[C@@]5(COc6nc(N7CC8CCC(C7)N8)c7cnc(-c8cc(O)cc9ccccc89)c(F)c7n6)CCCN45)CC3)no2)C(C)C)cc1 [Compound 37, [(3R,7aR)-7a-{[(4-{3,8-diazabicyclo[3.2.1]octan-3-yl}-8-fluoro-7-(3-hydroxynaphthalen-1-yl)pyrido[4,3-d]pyrimidin-2-yl)oxy]methyl}-hexahydro-1H-pyrrolizin-3-yl]methyl 4-{5-[(2R)-1-[(2S,4R)-4-hydroxy-2-{[(1S)-1-[4-(4-methyl-1,3-thiazol-5-yl)phenyl]ethyl]carbamoyl}pyrrolidin-1-yl]-3-methyl-1-oxobutan-2-yl]-1,2-oxazol-3-yl}piperazine-1-carboxylate]",80 to 100,< 600,> 3000,–
"CCc1cccc2cc(O)cc(-c3ncc4c(N5CC6CCC(C5)N6)nc(OC[C@]56CCCN5[C@@H](COc5cc(C(C(=O)N7C[C@H](O)C[C@H]7C(=O)N[C@@H](C)c7ccc(-c8scnc8C)cc7)C(C)C)on5)CC6)nc4c3F)c12 (stereo partly drawn) [Compound 38, (2S,4R)-1-[2-(3-{[(3R,7aR)-7a-{[(4-{3,8-diazabicyclo[3.2.1]octan-3-yl}-7-(8-ethyl-3-hydroxynaphthalen-1-yl)-8-fluoropyrido[4,3-d]pyrimidin-2-yl)oxy]methyl}-hexahydro-1H-pyrrolizin-3-yl]methoxy}-1,2-oxazol-5-yl)-3-methylbutanoyl]-4-hydroxy-N-[(1S)-1-[4-(4-methyl-1,3-thiazol-5-yl)phenyl]ethyl]pyrrolidine-2-carboxamide]",80 to 100,< 600,1000 to 3000,20 to 60
"C#Cc1c(F)ccc2cc(O)cc(-c3ncc4c(N5CC6CCC(C5)N6)nc(OCCN5CCC(COc6cc([C@H](C(=O)N7C[C@H](O)C[C@H]7C(=O)N[C@@H](C)c7ccc(-c8scnc8C)cc7)C(C)C)on6)CC5)nc4c3F)c12 [Compound 39, (2S,4R)-1-[(2R)-2-{3-[(1-{2-[(4-{3,8-diazabicyclo[3.2.1]octan-3-yl}-7-(8-ethynyl-7-fluoro-3-hydroxynaphthalen-1-yl)-8-fluoropyrido[4,3-d]pyrimidin-2-yl)oxy]ethyl}piperidin-4-yl)methoxy]-1,2-oxazol-5-yl}-3-methylbutanoyl]-4-hydroxy-N-[(1S)-1-[4-(4-methyl-1,3-thiazol-5-yl)phenyl]ethyl]pyrrolidine-2-carboxamide]",80 to 100,< 600,1000 to 3000,20 to 60
"Cc1ncsc1-c1ccc([C@H](C)NC(=O)[C@@H]2C[C@@H](O)CN2C(=O)[C@@H](c2cc(OCC3CCN(CCOc4nc(N5CC6CCC(C5)N6)c5cnc(-c6cc(O)cc7cccc(Cl)c67)c(F)c5n4)CC3)no2)C(C)C)cc1 [Compound 40, (2S,4R)-1-[(2R)-2-(3-{[1-(2-{[7-(8-chloro-3-hydroxynaphthalen-1-yl)-4-{3,8-diazabicyclo[3.2.1]octan-3-yl}-8-fluoropyrido[4,3-d]pyrimidin-2-yl]oxy}ethyl)piperidin-4-yl]methoxy}-1,2-oxazol-5-yl)-3-methylbutanoyl]-4-hydroxy-N-[(1S)-1-[4-(4-methyl-1,3-thiazol-5-yl)phenyl]ethyl]pyrrolidine-2-carboxamide]",80 to 100,< 600,> 3000,–
